{"source": "patent US20180179198A1", "about": "“TRICYCLIC MODULATORS OF TNF SIGNALING” (AbbVie Inc., priority 2015, published 2018)"}
{"molecular_target": "TNFα trimer (Homo sapiens, UniProt P01375)", "sequence (P01375 77-233 limits assumed)": "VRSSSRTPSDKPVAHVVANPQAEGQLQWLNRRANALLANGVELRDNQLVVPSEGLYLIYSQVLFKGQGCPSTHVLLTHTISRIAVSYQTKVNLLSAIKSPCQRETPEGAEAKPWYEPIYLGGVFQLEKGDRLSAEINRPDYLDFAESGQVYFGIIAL", "experiment": "TNFα FP Competitive Binding Assay", "settings": "fluorescence polarization competition; 20 nM TNFα trimer, 1 nM OregonGreen488 probe; read-out: TNF IC50 (TNFα FP binding assay IC50)", "in_short": "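Compounds, 12-point 1:3 dilutions topping at 100 μM (2.0% DMSO) or 338 μM (3.4% DMSO) final, compete with 1 nM fluorescent probe for 20 nM TNFα trimer in HEPES/NaCl/EDTA/Triton buffer. After 18-24 h incubation at 37 °C plus 1 h rt equilibration, background-subtracted polarization is read and fitted with variable slope.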", "units": {"IC50": "nM"}}
{"smiles": "O=C1NCCC12CCN(c1ncc(-c3ccc4nc5n(c4c3)[C@@H](c3ccccc3)COC5)cn1)C2", "note": "(stereo partly shown) [G.1]", "IC50": "1000 to 10000"}
{"smiles": "CC1CN(c2ncc(-c3ccc4nc5n(c4c3)[C@@H](c3ccccc3)COC5)cn2)CCO1", "note": "(stereo partly shown) [G.2]", "IC50": "< 1000"}
{"smiles": "O=C(O)CC1CCCN(c2ncc(-c3ccc4nc5n(c4c3)[C@@H](c3ccccc3)COC5)cn2)C1", "note": "(stereo partly shown) [G.3]", "IC50": "1000 to 10000"}
{"smiles": "OCC1CCCN(c2ncc(-c3ccc4nc5n(c4c3)[C@@H](c3ccccc3)COC5)cn2)C1", "note": "(stereo partly shown) [G.4]", "IC50": "< 1000"}
{"smiles": "OCCCN1CCN(c2ncc(-c3ccc4nc5n(c4c3)[C@@H](c3ccccc3)COC5)cn2)CC1", "note": "[G.5]", "IC50": "1000 to 10000"}
{"smiles": "O=C1NCNC12CCN(c1ncc(-c3ccc4nc5n(c4c3)[C@@H](c3ccccc3)COC5)cn1)CC2", "note": "[G.6]", "IC50": "1000 to 10000"}
{"smiles": "CC(O)C1CCN(c2ncc(-c3ccc4nc5n(c4c3)[C@@H](c3ccccc3)COC5)cn2)CC1", "note": "(stereo partly shown) [G.7]", "IC50": "1000 to 10000"}
{"smiles": "c1ccc([C@H]2COCc3nc4ccc(-c5cnc(N6CCC7(CC6)COC7)nc5)cc4n32)cc1", "note": "[G.8]", "IC50": "< 1000"}
{"smiles": "O=C1CN(c2ncc(-c3ccc4nc5n(c4c3)[C@@H](c3ccccc3)COC5)cn2)CCCN1", "note": "[G.9]", "IC50": "1000 to 10000"}
{"smiles": "O=C(O)CCC1CCN(c2ncc(-c3ccc4nc5n(c4c3)[C@@H](c3ccccc3)COC5)cn2)CC1", "note": "[G.10]", "IC50": "1000 to 10000"}
{"smiles": "OC1CCCN(c2ncc(-c3ccc4nc5n(c4c3)[C@@H](c3ccccc3)COC5)cn2)CC1", "note": "(stereo partly shown) [G.11]", "IC50": "< 1000"}
{"smiles": "NS(=O)(=O)N1CCN(c2ncc(-c3ccc4nc5n(c4c3)[C@@H](c3ccccc3)COC5)cn2)CC1", "note": "[G.12]", "IC50": "< 1000"}
{"smiles": "CN1CCC(N2CCN(c3ncc(-c4ccc5nc6n(c5c4)[C@@H](c4ccccc4)COC6)cn3)CC2)CC1", "note": "[G.13]", "IC50": "1000 to 10000"}
{"smiles": "OCC1(F)CCN(c2ncc(-c3ccc4nc5n(c4c3)[C@@H](c3ccccc3)COC5)cn2)CC1", "note": "[G.14]", "IC50": "< 1000"}
{"smiles": "FC(F)(F)C1CN(c2ncc(-c3ccc4nc5n(c4c3)[C@@H](c3ccccc3)COC5)cn2)CCO1", "note": "(stereo partly shown) [G.15]", "IC50": "1000 to 10000"}
{"smiles": "c1ccc([C@H]2COCc3nc4ccc(-c5cnc(N6CCC7(COC7)C6)nc5)cc4n32)cc1", "note": "[G.16]", "IC50": "1000 to 10000"}
{"smiles": "c1ccc([C@H]2COCc3nc4ccc(-c5cnc(N6CC(N7CCOCC7)C6)nc5)cc4n32)cc1", "note": "[G.17]", "IC50": "10000 to 100000"}
{"smiles": "CS(=O)(=O)[C@@H]1CCN(c2ncc(-c3ccc4nc5n(c4c3)[C@@H](c3ccccc3)COC5)cn2)C1", "note": "[G.18]", "IC50": "1000 to 10000"}
{"smiles": "CS(=O)(=O)NC1CCN(c2ncc(-c3ccc4nc5n(c4c3)[C@@H](c3ccccc3)COC5)cn2)CC1", "note": "[G.19]", "IC50": "1000 to 10000"}
{"smiles": "OCCC1(O)CCN(c2ncc(-c3ccc4nc5n(c4c3)[C@@H](c3ccccc3)COC5)cn2)CC1", "note": "[G.20]", "IC50": "< 1000"}
{"smiles": "CN1CCC(C2CCN(c3ncc(-c4ccc5nc6n(c5c4)[C@@H](c4ccccc4)COC6)cn3)CC2)CC1", "note": "[G.21]", "IC50": "1000 to 10000"}
{"smiles": "CC1(O)CCN(c2ncc(-c3ccc4nc5n(c4c3)[C@@H](c3ccccc3)COC5)cn2)CC1", "note": "[G.22]", "IC50": "< 1000"}
{"smiles": "CC1CN(c2ncc(-c3ccc4nc5n(c4c3)[C@@H](c3ccccc3)COC5)cn2)CC(C)O1", "note": "(stereo partly shown) [G.23]", "IC50": "1000 to 10000"}
{"smiles": "CS(=O)(=O)N1CCN(c2ncc(-c3ccc4nc5n(c4c3)[C@@H](c3ccccc3)COC5)cn2)CC1", "note": "[G.24]", "IC50": "< 1000"}
{"smiles": "O[C@H]1CN(c2ncc(-c3ccc4nc5n(c4c3)[C@@H](c3ccccc3)COC5)cn2)C[C@@H]1O", "note": "[G.25]", "IC50": "10000 to 100000"}
{"smiles": "O[C@@H]1CN(c2ncc(-c3ccc4nc5n(c4c3)[C@@H](c3ccccc3)COC5)cn2)C[C@H]1O", "note": "[G.26]", "IC50": "10000 to 100000"}
{"smiles": "O=C1OCC2CN(c3ncc(-c4ccc5nc6n(c5c4)[C@@H](c4ccccc4)COC6)cn3)CCN12", "note": "(stereo partly shown) [G.27]", "IC50": "1000 to 10000"}
{"smiles": "c1ccc([C@H]2COCc3nc4ccc(-c5cnc(N6CCn7cnnc7C6)nc5)cc4n32)cc1", "note": "[G.28]", "IC50": "< 1000"}
{"smiles": "CS(=O)(=O)C1CCN(c2ncc(-c3ccc4nc5n(c4c3)[C@@H](c3ccccc3)COC5)cn2)C1", "note": "(stereo partly shown) [G.29]", "IC50": "1000 to 10000"}
{"smiles": "O=C1CN(c2ncc(-c3ccc4nc5n(c4c3)[C@@H](c3ccccc3)COC5)cn2)CCN1", "note": "[G.30]", "IC50": "< 1000"}
{"smiles": "OCCC1(O)CCN(c2ncc(-c3ccc4nc5n(c4c3)[C@@H](c3ccccc3)COC5)cn2)C1", "note": "(stereo partly shown) [G.31]", "IC50": "1000 to 10000"}
{"smiles": "c1ccc([C@H]2COCc3nc4ccc(-c5cnc(N6CCCOCC6)nc5)cc4n32)cc1", "note": "[G.32]", "IC50": "< 1000"}
{"smiles": "CS(=O)(=O)C1(CO)CCN(c2ncc(-c3ccc4nc5n(c4c3)[C@@H](c3ccccc3)COC5)cn2)CC1", "note": "[G.33]", "IC50": "1000 to 10000"}
{"smiles": "OC1CC2(CCN(c3ncc(-c4ccc5nc6n(c5c4)[C@@H](c4ccccc4)COC6)cn3)C2)C1", "note": "(stereo partly shown) [G.34]", "IC50": "< 1000"}
{"smiles": "OCC1CN(c2ncc(-c3ccc4nc5n(c4c3)[C@@H](c3ccccc3)COC5)cn2)CCO1", "note": "(stereo partly shown) [G.35]", "IC50": "< 1000"}
{"smiles": "O=C(O)C1CN(c2ncc(-c3ccc4nc5n(c4c3)C(c3ccccc3)CCC5)cn2)C1", "note": "(stereo not shown) [H.1]", "IC50": "10000 to 100000"}
{"smiles": "O=C(O)C1CCN(c2ncc(-c3ccc4nc5n(c4c3)C(c3ccccc3)CCC5)cn2)CC1", "note": "(stereo not shown) [H.2]", "IC50": "1000 to 10000"}
{"smiles": "O=C1CN(c2ncc(-c3ccc4nc5n(c4c3)C(c3ccccc3)CCC5)cn2)CCN1", "note": "(stereo not shown) [H.3]", "IC50": "1000 to 10000"}
{"smiles": "OC1(c2cccc(Cl)c2)CCCc2nc3ccc(-c4cnc(N5CCOCC5)nc4)cn3c21", "note": "(stereo not shown) [I.1, 9-(3-Chlorophenyl)-2-(2-morpholinopyrimidin-5-yl)-6,7,8,9-tetrahydrobenzo[4,5]imidazo[1,2-a]pyridin-9-ol]", "IC50": "1000 to 10000"}
{"smiles": "OC1(c2ccccc2)CCCc2nc3ccc(-c4cnc(N5CCOCC5)nc4)cn3c21", "note": "(stereo not shown) [I.2]", "IC50": "1000 to 10000"}
{"smiles": "Cc1cccc(C2(O)CCCc3nc4ccc(-c5cnc(N6CCOCC6)nc5)cn4c32)c1", "note": "(stereo not shown) [I.3]", "IC50": "1000 to 10000"}
{"smiles": "OC1(c2cccc(F)c2)CCCc2nc3ccc(-c4cnc(N5CCOCC5)nc4)cn3c21", "note": "(stereo not shown) [I.4]", "IC50": "1000 to 10000"}
{"smiles": "Cc1c(F)cccc1C1(O)CCCc2nc3ccc(-c4cnc(N5CCOCC5)nc4)cn3c21", "note": "(stereo not shown) [I.5]", "IC50": "1000 to 10000"}
{"smiles": "OC1(c2ccc(F)cc2)CCCc2nc3ccc(-c4cnc(N5CCOCC5)nc4)cn3c21", "note": "(stereo not shown) [I.6]", "IC50": "1000 to 10000"}
{"smiles": "OC1(c2cc(F)cc(Cl)c2)CCCc2nc3ccc(-c4cnc(N5CCOCC5)nc4)cn3c21", "note": "(stereo not shown) [I.7]", "IC50": "1000 to 10000"}
{"smiles": "Cc1ccc(C2(O)CCCc3nc4ccc(-c5cnc(N6CCOCC6)nc5)cn4c32)cc1", "note": "(stereo not shown) [I.8]", "IC50": "1000 to 10000"}
{"smiles": "OC1(c2cccc(F)c2)CCCCc2nc3ccc(-c4cnc(N5CCOCC5)nc4)cn3c21", "note": "(stereo not shown) [J.1]", "IC50": "< 1000"}
{"smiles": "OC1(c2cccc(Cl)c2)CCCCc2nc3ccc(-c4cnc(N5CCOCC5)nc4)cn3c21", "note": "(stereo not shown) [J.2]", "IC50": "1000 to 10000"}
{"smiles": "Cc1cccc(C2(O)CCCCc3nc4ccc(-c5cnc(N6CCOCC6)nc5)cn4c32)c1", "note": "(stereo not shown) [J.3]", "IC50": "1000 to 10000"}
{"smiles": "OC1(c2ccc(F)cc2)CCCCc2nc3ccc(-c4cnc(N5CCOCC5)nc4)cn3c21", "note": "(stereo not shown) [J.4]", "IC50": "1000 to 10000"}
{"smiles": "OC1(c2cc(F)cc(Cl)c2)CCCCc2nc3ccc(-c4cnc(N5CCOCC5)nc4)cn3c21", "note": "(stereo not shown) [J.5]", "IC50": "1000 to 10000"}
{"smiles": "COc1ccc(C2(O)CCCCc3nc4ccc(-c5cnc(N6CCOCC6)nc5)cn4c32)cc1", "note": "(stereo not shown) [J.6]", "IC50": "1000 to 10000"}
{"smiles": "Cc1ccc(C2(O)CCCCc3nc4ccc(-c5cnc(N6CCOCC6)nc5)cn4c32)cc1", "note": "(stereo not shown) [J.7]", "IC50": "1000 to 10000"}
{"smiles": "OC1(c2ccc(Cl)cc2)CCCCc2nc3ccc(-c4cnc(N5CCOCC5)nc4)cn3c21", "note": "(stereo not shown) [J.8]", "IC50": "1000 to 10000"}
{"smiles": "COc1cc(OC)cc(C2(O)CCCCc3nc4ccc(-c5cnc(N6CCOCC6)nc5)cn4c32)c1", "note": "(stereo not shown) [J.9]", "IC50": "10000 to 100000"}
{"smiles": "COc1cccc(C2(O)CCCCc3nc4ccc(-c5cnc(N6CCOCC6)nc5)cn4c32)c1", "note": "(stereo not shown) [J.10]", "IC50": "10000 to 100000"}
{"smiles": "Clc1cccc(C2CCCc3nc4ccc(-c5cnc(N6CCOCC6)nc5)cn4c32)c1", "note": "(stereo not shown) [K.1]", "IC50": "< 1000"}
{"smiles": "CC(C)(O)c1ncc(-c2ccc3nc4n(c3n2)C(c2ccccc2)CC4)cn1", "note": "(stereo not shown) [L.1]", "IC50": "< 1000"}
